Experiment [1] concerns HeLa cells. Description: Gene transfer evaluated by luciferase assay (Example 2). The experiment is classed as cell-based, human. The conditions noted are these: lipoplex with 1 μg plasmid DNA, various N/P ratios; FIG. 7 and FIG. 8. The protocol:
HeLa cells derived from human cervical cancer were seeded in a 24-well dish at 5.0×10^4 cells per well, and cultured overnight at 37° C. in 0.5 ml of a DMEM medium containing 10% FBS. Then, the cells were washed twice with PBS containing 0.36 mM CaCl2 and 0.42 mM MgCl2 (PBS (+)). Next, 0.5 ml of a DMEM medium containing 10% FBS was added, and the cells were supplemented with a lipoplex (100 μl) containing 1 μg of plasmid DNA per well and incubated at 37° C. for 4 hours. Afterward, the cells were washed three times with PBS (+) to remove the lipoplex not incorporated into the cells. Then, 1 ml of a DMEM medium containing 10% FBS was added, and the cells were cultured at 37° C. for 40 hours.
The cells treated with the lipoplex and cultured for 40 hours were washed twice with PBS (+), and further washed once with PBS (−). […] The luciferase activity and the amount of protein in the resulting cell lysate were determined by luciferase assay and a Coomassie (Bradford) Protein Assay Kit (PIERCE). […] The luminescent substrate solution (20 μl) was mixed with a luminescent substrate liquid (95 μl) including luciferin (13.5 μg) and a 5 mg/ml albumin solution (5 ml), and subjected to measurement for 20 seconds with a Lumat LB9507 luminometer (Berthold Japan Co., Ltd.) for an amount of luminescence.

Experiment [2] deals with NHDF-ad cells. As to the kind of experiment: Gene transfer (GFP expression, luciferase activity) versus commercial agents (Example 6). In kind it is cell-based, human. The conditions noted are these: single transfection, 48 hours. How it is done: pEGFP-C1 expressing a green fluorescent protein was used as a gene transfer plasmid; and NHDF-ad cells, which were normal […] cells derived from adult humans and also used for the production of iPS cells, were used as target cells. Lipoplexes were individually prepared using DL-U2. Then, gene transfer was performed.
(NHDF-ad cells: 2.5×10^4 cells/well·DMEM+10% FBS (Pe/St) 500 μl)
(i) A 20 mM Tris-HCl (pH 7.4) buffer was dispensed into two tubes at, individually, 56.3 μl (for NP ratio=3) and 37.5 μl (for NP ratio=6).
(ii) 1.0 μg of plasmid DNA (pCAG-GFP) was added to each of the two tubes prepared in step (i) at 2 μl (1.0 μg), and the contents were stirred. […]
(vii) 48 hours later, luciferase activity was measured according to the protocol of the luciferase assay system (Promega, E1501).
Lipofectamine LTX: Gene transfer was performed according to the protocol, and luciferase activity was measured according to the protocol of the luciferase assay system (Promega, E1501).
FuGENE HD: Gene transfer was performed according to the protocol, and luciferase activity was measured according to the protocol of the luciferase assay system (Promega, E1501).
FuGENE6: Gene transfer was performed according to the protocol, and luciferase activity was measured according to the protocol of the luciferase assay system (Promega, E1501).

Structures are written as SMILES.

As for `CCCCCCCC/C=C\CCCCCCCCN(CCCCCCCC/C=C\CCCCCCCC)CCC(=O)NCCN(CCC(=O)NCCN)CCC(=O)NCCN` (racemic) [DL-G1-U2], the “gene transfer efficiency (luciferase activity) compared with G1” value in experiment [1] is given as “two times higher”. The “gene transfer (GFP gene) efficiency” value in experiment [2] is recorded as “allowed the gene to be transferred into the cells at a remarkably high frequency”.

The values above are taken from patent US8557875B2, “Gene transfer agent composition containing polyamidoamine dendron” (Public University Corporation Osaka Prefecture University, priority 2009, dated 2013).
